For data set [1], the system named is P. falciparum 3D7 (sensitive) strain, asexual blood stage. Nature of the data set: Plasmodium growth inhibition by SYBR Green I, 3D7 strain. The format is cell-based. The procedure: (§1) Parasite cultures (3D7 and Dd2 strains) were maintained in O^+ human erythrocytes in RPMI 1640 medium supplemented with 0.05 mg/mL gentamycin, 38.4 mM HEPES, 0.2% sodium bicarbonate, and 10% O^+ human serum as described before (Trager and Jensen, [1976]). To achieve a synchronic culture in the ring stage, two consecutive treatments at 48 h intervals with a 5% solution of D-sorbitol were done (Lambros and Vanderberg, [1979]).
(§2) Synchronized ring-stage (> 90%) infected erythrocytes were dispensed in duplicate into 96-well plates (0.5% parasitemia, 1% hematocrit) and incubated in dose response format with test compounds for 72 h. Chloroquine was used as an antimalarial control and uninfected erythrocytes as negative control. Then, in vitro susceptibility of parasite to tested drug was measured by SYBR Green (Hartwig et al., [2013]). Following incubation, the plates were frozen and thawed, and 100 μL of the culture were transferred to a new black 96-well plate containing 100 μL of lysis buffer (20 mM Tris, 5 mM EDTA, 0.008% wt/vol saponin, 0.08% vol/vol Triton X-100, and 0.4 μL/mL of SYBR Green). After 1 h, the fluorescence was measured at 490 nm excitation and 540 nm emission (CLARIOstar, Labtech BMG). […] The EC50 was calculated by plotting the Log doses vs. Inhibition (expressed as a percentage relative to the control) in Prism 6 (GraphPad Software Inc.). Each test was performed at least three independent experiments.

In data set [2] the test system is P. falciparum Dd2 (multi-drug-resistant) strain, asexual blood stage. Description: Plasmodium growth inhibition by SYBR Green I, Dd2 strain. The format is cell-based. The conditions noted are these: read-out: EC50 Dd2. The procedure:
as §1, §2

Data set [3] in a line: Cytotoxicity assay (MTT reduction), COS7 cells. The conditions noted are these: monkey, COS7 cells (fibroblast-like, monkey kidney); COS7 cells, 72 h, mean ± SD. The format is cell-based, monkey. The procedure:
(§3) The cytotoxicity was evaluated using two different lineages of mammalian cells: fibroblast-like cell lines derived from monkey kidney tissue (COS7 cells) and human hepatoma cell line (HEPG2). The cells were grown in 75 cm^2 flasks containing DMEM medium supplemented with 10% fetal bovine serum and 0.05 mg/mL gentamicin under a 5% CO2 atmosphere at 37°C. After harvest of cells, 100 μL aliquots were distributed in 96-well plates (1 x 10^4 cells per well) and incubated until adhesion (~12 h). The compounds at various concentrations (100−0.048 μM) were placed in the wells in duplicate and incubated for 72 h. The cell viability analysis were done by the MMT reduction method (3-[4,5-dimethyl-thiazol-2-yl]-2,5-diphenyltetrazolium […]), after the incubation period (Mosmann, [1983]). The optical density was determined at 570 nm (CLARIOstar, Labtech BMG) and the 50% cytotoxicity concentrations (CC50) were expressed as the percent viability relative to the control (untreated cells). The selectivity index of the compounds was determined through the ratio of the CC50 of both cytotoxicity results (COS7 and HEPG2 cells) and EC50 3D7, separately. Experiments were performed at least three times.

For a further data set, the system named is COS7 cells. Description: Cytotoxicity assay (MTT reduction), COS7 cells. The format is cell-based, monkey. The conditions noted are these: for SI* (selectivity index between CC50 COS7 and EC50 3D7 strain): CC50 COS7 / EC50 3D7; for selectivity indices: mammalian cells vs 3D7 (abstract). The procedure:
as §3
(In general: Tetrazolium assays rely on reduction of a dye to a coloured formazan, in cell work by metabolically active cells.)

A short description of data set [4]: Cytotoxicity assay (MTT reduction), HEPG2 cells. The format is cell-based, human. Particulars: human, HEPG2 cells (human hepatoma); HEPG2 cells, 72 h, mean ± SD. The procedure: as §3
The next data set concerns HEPG2 cells. Nature of the data set: Cytotoxicity assay (MTT reduction), HEPG2 cells. The format is cell-based, human. The conditions noted are these: CC50 HEPG2 / EC50 3D7. The procedure: as §3
The subject of data set [5] is P. berghei Ookluc line ookinete formation. Nature of the data set: Inhibition of P. berghei sexual stage progression (ookinete conversion, nLuc). The format is cell-based. The conditions noted are these: Plasmodium berghei, 24 h at 21°C, mean ± SD. On the procedure:
Balb/c mice were infected intraperitoneally with the P. berghei Ookluc line (Calit et al., [2018]). Four to five days after infection, the infected blood was collected by cardiac puncture and 4 μL were seeded to a volume of 80 μL of ookinete medium (Blagborough et al., [2013]), at 21°C, containing 10 μM of compounds or DMSO vehicle control. After 24h incubation at 21°C, the nLuc substrate (Nano-Glo, Promega) was added to each well 1:1 (v:v) and incubated for 5 min at 37°C. The luciferase activity was measured using a plate luminometer SpectraMax i3; Molecular Devices and the % of conversion inhibition were calculated relative to the luciferase activity in the control assays. This assay was approved by the Ethics Committee (protocol number 132/2014-CEUA) of the Institute of Biomedical Sciences—University of São Paulo.

In another data set the test system is P. falciparum CDPK4. Also on record: method as in ref Crowther et al., 2016; National Center for Biotechnology Information, 2016b. Particulars: query of shape-based model, ref Crowther et al., 2016, National Center for Biotechnology Information, 2016b; cited from earlier work.
Another data set relates to P. falciparum PK6. On the set-up: method as in ref Crowther et al., 2016; National Center for Biotechnology Information, 2016c. The conditions noted are these: query of shape-based model, ref Crowther et al., 2016, National Center for Biotechnology Information, 2016c; cited from earlier work.
For a further data set, the system named is P. falciparum CDPK1. Also on record: method as in ref Crowther et al., 2016; National Center for Biotechnology Information, 2016a. The conditions noted are these: query of shape-based model, ref Crowther et al., 2016, National Center for Biotechnology Information, 2016a; cited from earlier work.
[6] abbreviates: 3D7 strain, 72 h, mean ± SD of three independent assays, read-out: EC50 3D7.
[7] abbreviates: Dd2 strain, 72 h, mean ± SD of three independent assays.
[8] abbreviates: 3D7, both sensitive and multi-drug resistant P. falciparum strains (abstract), read-out: EC50 (antiplasmodial activity).
Setting [9] is: 3D7 / DD2, both 3D7 and Dd2 strains, summary bound, read-out: EC50 (3D7 and Dd2 strains).

Like-named read-outs stand apart in the source and are kept apart here.

As a reminder, the EC50 is the concentration needed to bring the measured effect to its halfway point. The term CC50 denotes the concentration giving 50% cytotoxicity. What is called inhibition is how much of the control response was suppressed. The term IC50 denotes the midpoint of a concentration-inhibition curve.

Regarding `CCN(CC)CCCC(C)Nc1ccnc2cc(Cl)ccc12` (stereo not drawn) [Chloroquine, reference compound], the EC50 stood at 20 ± 10 nM in data set [1] (3D7, 72 h, read-out: EC50 3D7) and 150 ± 40 nM in data set [2] (DD2, 72 h).
As for `COc1ccc(Nc2nc(Nc3ccc([N+](=O)[O-])cc3)nc(OC)n2)cc1` [LabMol-169], the EC50 in data set [1] (setting [6]) stood at 8770 ± 2200 nM; in data set [2] (setting [7]), 3400 ± 1680 nM. Besides, the CC50 at 72 h in data set [3] amounted to 44.6 ± 3.73 µM; in data set [4] it was 19.9 ± 2.26 µM. For the same compound, the “SI* (selectivity index between CC50 COS7 and EC50 3D7 strain)” value in the data set with COS7 cells is 5.09. Further, the “SI** (selectivity index between CC50 HEPG2 and EC50 3D7 strain)” value in the data set on HEPG2 cells was found to be 2.27. The compound also displayed an inhibition at 10 µM in [5] of 8.58 ± 7.62%.
For the compound `COc1ccc(Nc2nc(C)c(N)c(Nc3ccc(OC)cc3)n2)cc1` [LabMol-170], the EC50 in [1] (setting [6]) came to 1140 ± 200 nM; in data set [2] (setting [7]), 2020 ± 360 nM. The results for the CC50 at 72 h in data set [3] and in data set [4] were 7.59 ± 4.09 µM and 5.43 ± 2.39 µM, respectively. Further, the “SI* (selectivity index between CC50 COS7 and EC50 3D7 strain)” value in the data set on COS7 cells amounted to 6.66. Also, in the data set on HEPG2 cells, the “SI** (selectivity index between CC50 HEPG2 and EC50 3D7 strain)” value is recorded as 4.76. This compound also returned an inhibition at 10 µM in [5] of 11.2 ± 19.5%.
Turning to `CC(O)c1cccc(Nc2nc(NCCO)c3ccccc3n2)c1` (stereo not drawn) [LabMol-171], the EC50 is not above 700 nM in [1] (setting [8]), less than 1000 nM in [1] (setting [9]), 350 ± 80 nM in [1] (setting [6]) and 700 ± 410 nM in data set [2] (setting [7]). Moreover, the figures for the CC50 at 72 h in data set [3] and in data set [4] were 48.4 ± 14 µM and 19.3 ± 3.69 µM, respectively. Besides, the “SI* (selectivity index between CC50 COS7 and EC50 3D7 strain)” value in the data set with COS7 cells was found to be 138.26. In the data set on COS7 cells, this compound displayed a selectivity indices of more than 15 folds. Moreover, in the data set on HEPG2 cells, the “SI** (selectivity index between CC50 HEPG2 and EC50 3D7 strain)” value was 55.17. The compound further gave an inhibition at 10 µM in [5] of 70 ± 22.2%.
With `CC(O)c1cccc(Nc2nc(NCc3ccco3)c3ccccc3n2)c1` (stereo not drawn) [LabMol-172], the EC50 in [1] (setting [8]) was not above 700 nM; in data set [1] (setting [9]) it was less than 1000 nM; in data set [1] (setting [6]), 430 ± 80 nM; in data set [2] (setting [7]), 480 ± 170 nM. Further, the CC50 at 72 h is 12.1 ± 1.44 µM in data set [3] and 10.2 ± 5.53 µM in data set [4]. Also, the “SI* (selectivity index between CC50 COS7 and EC50 3D7 strain)” value with COS7 cells is listed as 28.16. In the data set on COS7 cells, this compound returned a selectivity indices of more than 15 folds. The “SI** (selectivity index between CC50 HEPG2 and EC50 3D7 strain)” value in the data set on HEPG2 cells is 23.74. The compound further returned an inhibition at 10 µM in data set [5] of 8.59 ± 13%.
As to `CN1CCN(CCC2CCCCN2Cc2ccnc3ccccc23)CC1` (stereo not drawn) [LabMol-173], the EC50 in data set [1] (setting [6]) is more than 5000 nM. In data set [5], this compound registered an inhibition at 10 µM of 0%.
The corresponding values for `Cc1cc(NCCCN2CCN(C)CC2)nc(-c2ccccc2O)n1` [LabMol-174] are more than 5000 nM and 21.4 ± 36.7%.
In the case of `O=C(NCCO)c1cccc(Nc2nc(-c3ccccc3)c3cc(Cl)ccc3n2)c1` [LabMol-175], in data set [1] (setting [6]), the EC50 is more than 5000 nM. This compound also yielded an inhibition at 10 µM in data set [5] of 12.9 ± 22.3%.
Consider `CC(Nc1nc(N2CCNCC2)nc2ccccc12)c1ccccc1` (stereo not drawn) [LabMol-176], for which the 50% effective concentration (EC50) in data set [1] (setting [6]) amounted to 1150 ± 260 nM; in data set [2] (setting [7]), 1710 ± 400 nM. Also, the CC50 at 72 h in data set [3] is 34.9 ± 4.06 µM; in data set [4] it was 5.63 ± 1.51 µM. In addition, the “SI* (selectivity index between CC50 COS7 and EC50 3D7 strain)” value in the data set on COS7 cells turned out to be 30.33. Moreover, in the data set with HEPG2 cells, the “SI** (selectivity index between CC50 HEPG2 and EC50 3D7 strain)” value came out at 4.90. Moreover, the inhibition at 10 µM in data set [5] was 20.5 ± 19.4%.
Regarding `Cc1ccc(-c2nc(NCc3cnc(C)cn3)ncc2-c2ccc(N)nc2)cc1` [LabMol-177], the EC50 in data set [1] (setting [6]) was more than 5000 nM. Testing at 10 µM in data set [5] gave an inhibition of 8.76 ± 15.2%.
Consider `c1ccc2c(NCC3CCCO3)nc(Nc3ccc4c(c3)OCO4)nc2c1` (stereo not drawn) [LabMol-181], for which the EC50 in data set [1] (setting [8]) is not above 700 nM; in data set [1] (setting [9]) it was less than 1000 nM; in [1] (setting [6]) it was 390 ± 60 nM; in data set [2] (setting [7]), 400 ± 100 nM. Further, the values for the CC50 at 72 h in [3] and in data set [4] were 18.3 ± 1.92 µM and 6.13 ± 2.05 µM, respectively. Also, in the data set with COS7 cells, the “SI* (selectivity index between CC50 COS7 and EC50 3D7 strain)” value came out at 46.90. This compound returned a selectivity indices in the data set with COS7 cells of more than 15 folds. The “SI** (selectivity index between CC50 HEPG2 and EC50 3D7 strain)” value in the data set with HEPG2 cells amounted to 15.72. At 10 µM the inhibition in data set [5] was 51.8 ± 23.2%.
For `Cc1[nH]c(/C=C2\C(=O)Nc3ccc(S(=O)(=O)Cc4c(Cl)cccc4Cl)cc32)c(C)c1C(=O)N1CCC[C@@H]1CN1CCCC1` [SID 307068815], the half-inhibitory concentration (IC50) in the data set with P. falciparum CDPK4 is 21 nM.
As for `CNC(=O)c1ccccc1Nc1nc(Nc2ccc(N3CCOCC3)cc2)ncc1Cl` [SID 307071719], the half-maximal inhibitory concentration (IC50) with P. falciparum PK6 was 42 nM.
`CCn1c(-c2nonc2N)nc2c(-c3cccc(NC(=O)Nc4cccc(C(F)(F)F)c4)c3)ncc(OCCCN)c21` [SID 307073749]: the IC50 with P. falciparum CDPK1 is 15 nM.
Take `O=C(NCCCN1CCCCC1)c1ccc(Nc2nccc(Nc3ccc(Oc4ccccc4)cc3)n2)cc1` [SID 307076176]: in the data set with P. falciparum CDPK1, the IC50 is 94 nM.
As for `CC(C)(CN)c1nc(-c2ccc(Cl)c(O)c2)c(-c2ccnc(N)n2)[nH]1` [SID 307078537], the IC50 in the data set on P. falciparum CDPK1 was 7 nM.

The record behind these values is publication PMC6881481, “Integrative Multi-Kinase Approach for the Identification of Potent Antiplasmodial Hits” (Frontiers in Chemistry, 2019).
